Assay: Stability of cannabinoid compounds and Vitamin E components in Beverage 2 (AB Red) by LCMSMS
Assay type: physicochemical

For `CCCc1cc(O)c2c(c1)OC(C)(C)[C@@H]1CCC(C)=C[C@@H]21` [THCV, delta-9-tetrahydrocannabivarin], the “Stability of Plant-Derived Cannabinoid Compounds in AB Red” value (from here on “Stability”) (stored at 8° C., 0 days) was 3.22 µg/mL, the “Stability” value (stored at 8° C., 1 days) was 3.19 µg/mL and the “Stability” value (stored at 8° C., 2 days) was 3.17 µg/mL. For the same molecule, the “Stability” value (stored at 8° C., 3 days) was 3.20 µg/mL, the “Stability” value (stored at 8° C., 5 days) was 3.24 µg/mL and the “Stability” value (stored at 8° C., 8 days) was 3.17 µg/mL. For the same molecule, the “Stability” value (stored at 8° C., 9 days) was 3.14 µg/mL, the “Stability” value (stored at 8° C., 10 days) was 3.14 µg/mL and the “Stability” value (stored at 8° C., 11 days) was 3.24 µg/mL. For the same molecule, the “Stability” value (stored at 8° C., 12 days) was 3.25 µg/mL, the “Stability” value (stored at 8° C., 15 days) was 3.19 µg/mL and the “Stability” value (stored at 8° C., 16 days) was 3.25 µg/mL. For the same molecule, the “Stability” value (stored at 8° C., 17 days) was 3.12 µg/mL, the “Stability” value (stored at 8° C., 18 days) was 3.17 µg/mL and the “Stability” value (stored at 8° C., 19 days) was 3.19 µg/mL. For the same molecule, the “Stability” value (stored at 8° C., 22 days) was 3.22 µg/mL, the “Stability” value (stored at 8° C., 23 days) was 3.25 µg/mL and the “Stability” value (stored at 8° C., 24 days) was 3.15 µg/mL. For the same molecule, the “Stability” value (stored at 8° C., 25 days) was 3.25 µg/mL, the “Stability” value (stored at 8° C., 26 days) was 3.13 µg/mL and the “Stability” value (stored at 8° C., 29 days) was 3.22 µg/mL. For the same molecule, the “Stability” value (stored at 8° C., 30 days) was 3.20 µg/mL, the “Stability” value (stored at 8° C., 60 days) was 3.11 µg/mL and the “Stability” value (stored at 8° C., 90 days) was 3.10 µg/mL. For the same molecule, the “Stability” value (stored at 8° C., 120 days) was 3.10 µg/mL, the “Stability” value (stored at 8° C., 150 days) was 3.15 µg/mL and the “Stability” value (stored at 8° C., 180 days) was 3.10 µg/mL. For the same molecule, the “Stability” value (stored at 8° C., 210 days) was 3.15 µg/mL, the “Stability” value (stored at 8° C., 240 days) was 3.08 µg/mL and the “Stability” value (stored at 8° C., 270 days) was 3.15 µg/mL. The “Stability” value (stored at 8° C., 300 days) was 3.15 µg/mL, the “Stability” value (stored at 8° C., 330 days) was 3.15 µg/mL and the “Stability” value (stored at 8° C., 360 days) was 3.08 µg/mL. The “Stability” value (stored at 8° C., 390 days) was 3.08 µg/mL, the “Stability” value (stored at 8° C., 420 days) was 3.13 µg/mL and the “Stability” value (stored at 8° C., 450 days) was 3.08 µg/mL. For the same molecule, the “Stability” value (stored at 8° C., 480 days) was 3.05 µg/mL, the “Stability” value (stored at 8° C., 510 days) was 2.95 µg/mL and the “Stability” value (stored at 8° C., 540 days) was 2.99 µg/mL. The “Stability” value (stored at 8° C., 570 days) was 2.95 µg/mL, the “Stability” value (stored at 21-25° C., 0 days) was 3.22 µg/mL and the “Stability” value (stored at 21-25° C., 1 days) was 3.13 µg/mL. For the same molecule, the “Stability” value (stored at 21-25° C., 2 days) was 3.20 µg/mL, the “Stability” value (stored at 21-25° C., 3 days) was 3.25 µg/mL and the “Stability” value (stored at 21-25° C., 5 days) was 3.25 µg/mL. The “Stability” value (stored at 21-25° C., 8 days) was 3.19 µg/mL, the “Stability” value (stored at 21-25° C., 9 days) was 3.17 µg/mL and the “Stability” value (stored at 21-25° C., 10 days) was 3.09 µg/mL. For the same molecule, the “Stability” value (stored at 21-25° C., 11 days) was 3.24 µg/mL, the “Stability” value (stored at 21-25° C., 12 days) was 3.24 µg/mL and the “Stability” value (stored at 21-25° C., 15 days) was 3.20 µg/mL. For the same molecule, the “Stability” value (stored at 21-25° C., 16 days) was 3.20 µg/mL, the “Stability” value (stored at 21-25° C., 17 days) was 3.11 µg/mL and the “Stability” value (stored at 21-25° C., 18 days) was 3.19 µg/mL. The “Stability” value (stored at 21-25° C., 19 days) was 3.19 µg/mL, the “Stability” value (stored at 21-25° C., 22 days) was 3.18 µg/mL and the “Stability” value (stored at 21-25° C., 23 days) was 3.23 µg/mL. For the same molecule, the “Stability” value (stored at 21-25° C., 24 days) was 3.25 µg/mL, the “Stability” value (stored at 21-25° C., 25 days) was 3.24 µg/mL and the “Stability” value (stored at 21-25° C., 26 days) was 3.11 µg/mL. For the same molecule, the “Stability” value (stored at 21-25° C., 29 days) was 3.15 µg/mL, the “Stability” value (stored at 21-25° C., 30 days) was 3.15 µg/mL and the “Stability” value (stored at 21-25° C., 60 days) was 3.18 µg/mL. For the same molecule, the “Stability” value (stored at 21-25° C., 90 days) was 3.05 µg/mL, the “Stability” value (stored at 21-25° C., 120 days) was 3.09 µg/mL and the “Stability” value (stored at 21-25° C., 150 days) was 3.17 µg/mL. The “Stability” value (stored at 21-25° C., 180 days) was 3.10 µg/mL, the “Stability” value (stored at 21-25° C., 210 days) was 3.03 µg/mL and the “Stability” value (stored at 21-25° C., 240 days) was 3.18 µg/mL. The “Stability” value (stored at 21-25° C., 270 days) was 3.04 µg/mL, the “Stability” value (stored at 21-25° C., 300 days) was 3.14 µg/mL and the “Stability” value (stored at 21-25° C., 330 days) was 3.19 µg/mL. The “Stability” value (stored at 21-25° C., 360 days) was 3.05 µg/mL, the “Stability” value (stored at 21-25° C., 390 days) was 3.04 µg/mL and the “Stability” value (stored at 21-25° C., 420 days) was 3.10 µg/mL. The “Stability” value (stored at 21-25° C., 450 days) was 3.14 µg/mL, the “Stability” value (stored at 21-25° C., 480 days) was 3.04 µg/mL and the “Stability” value (stored at 21-25° C., 510 days) was 3.01 µg/mL. For the same molecule, the “Stability” value (stored at 21-25° C., 540 days) was 2.95 µg/mL and the “Stability” value (stored at 21-25° C., 570 days) was 2.98 µg/mL.

— patent US20260130395A1, “Water Dispersible Botanical Compositions” (Aquila Black Limited, priority 2021, published 2026)
